Experimental data published in ChEMBL document CHEMBL3808373 (Bioorg Med Chem Lett, 2016).

Key:
[1] = Ratio of drug level in brain to plasma in rat; type: ADME, cell-free; conditions: read-out: BPR
[2] = Ratio of drug level in brain to plasma in dog; type: ADME, cell-free, Canis lupus familiaris; conditions: read-out: BPR
[3] = target: T1, Sodium channel protein type 1 subunit alpha (Homo sapiens, UniProt P35498); assay: Inhibition of 1 Hz stimulated Nav1.1 (unknown origin) by manual patch clamp method
[4] = target: T1, Sodium channel protein type 1 subunit alpha; assay: Inhibition of 10 Hz stimulated Nav1.1 (unknown origin) by manual patch clamp method
[5] = target: Voltage-gated inwardly rectifying potassium channel KCNH2 (Homo sapiens, UniProt Q12809); assay: Inhibition of human ERG
[6] = target: T2, Sodium channel protein type 2 subunit alpha (Homo sapiens, UniProt Q99250); assay: Inhibition of 1 Hz stimulated Nav1.2 (unknown origin) by manual patch clamp method
[7] = target: T2, Sodium channel protein type 2 subunit alpha; assay: Inhibition of 10 Hz stimulated Nav1.2 (unknown origin) by manual patch clamp method
[8] = target: T3, Sodium channel protein type 5 subunit alpha (Homo sapiens, UniProt Q14524); assay: Inhibition of 0.1 Hz stimulated human Nav1.5alpha expressed in HEK293 cells assessed as inhibition of late sodium current with 3 compound additions for 7 to 8 mins at holding potential -120 mV in presence of late sodium current activator tefluthrin/ATX2 measured immediately after third compound addition by PatchXpress method; type: cell-based
[9] = target: T4, Nav1.5 (peak sodium current, use-dependent block) (Homo sapiens, UniProt Q14524); assay: (§1) Inhibition of 3 Hz stimulated human Nav1.5alpha expressed in HEK293 cells assessed as use dependent block of peak sodium current at 10 uM with 3 compound additions at 60 sec intervals at holding potential -100 mV incubated for 320 sec after third compound addition followed by second period of 3 Hz stimulation by PatchXpress method relative to control; type: cell-based; conditions: HEK293 cells expressing human Nav1.5alpha
[10] = target: T1, Sodium channel protein type 1 subunit alpha; assay: Inhibition of 10 Hz stimulated Nav1.1 (unknown origin) assessed as inhibition of peak sodium current at 10 uM by automated patch clamp method relative to control
[11] = Half life in human microsomes; type: ADME, Microsome
[12] = Half life in rat microsomes; type: ADME, Microsome
[13] = target: T3, Sodium channel protein type 5 subunit alpha; conditions: HEK293, human, read-out: INH
Description: Inhibition of 0.1 Hz stimulated human Nav1.5alpha expressed in HEK293 cells assessed as inhibition of late sodium current at 10 uM with 3 compound additions for 7 to 8 mins at holding potential -120 mV in presence of late sodium current activator tefluthrin/ATX2 measured immediately after third compound addition by PatchXpress method relative to control

[14] = Half life in dog microsomes; type: ADME, Canis lupus familiaris, Microsome
[15] = target: T4, Nav1.5 (peak sodium current, use-dependent block); assay: as §1, with “at 1” for “at 10”; type: cell-based; conditions: HEK293 cells expressing human Nav1.5alpha
[16] = target: T4, Nav1.5 (peak sodium current, use-dependent block); assay: as §1, with “at 0.3” for “at 10”; type: cell-based; conditions: HEK293 cells expressing human Nav1.5alpha
[17] = Lipophilicity, log D of compound; type: physicochemical; conditions: octanol/water

T3 sequence (Q14524 whole entry): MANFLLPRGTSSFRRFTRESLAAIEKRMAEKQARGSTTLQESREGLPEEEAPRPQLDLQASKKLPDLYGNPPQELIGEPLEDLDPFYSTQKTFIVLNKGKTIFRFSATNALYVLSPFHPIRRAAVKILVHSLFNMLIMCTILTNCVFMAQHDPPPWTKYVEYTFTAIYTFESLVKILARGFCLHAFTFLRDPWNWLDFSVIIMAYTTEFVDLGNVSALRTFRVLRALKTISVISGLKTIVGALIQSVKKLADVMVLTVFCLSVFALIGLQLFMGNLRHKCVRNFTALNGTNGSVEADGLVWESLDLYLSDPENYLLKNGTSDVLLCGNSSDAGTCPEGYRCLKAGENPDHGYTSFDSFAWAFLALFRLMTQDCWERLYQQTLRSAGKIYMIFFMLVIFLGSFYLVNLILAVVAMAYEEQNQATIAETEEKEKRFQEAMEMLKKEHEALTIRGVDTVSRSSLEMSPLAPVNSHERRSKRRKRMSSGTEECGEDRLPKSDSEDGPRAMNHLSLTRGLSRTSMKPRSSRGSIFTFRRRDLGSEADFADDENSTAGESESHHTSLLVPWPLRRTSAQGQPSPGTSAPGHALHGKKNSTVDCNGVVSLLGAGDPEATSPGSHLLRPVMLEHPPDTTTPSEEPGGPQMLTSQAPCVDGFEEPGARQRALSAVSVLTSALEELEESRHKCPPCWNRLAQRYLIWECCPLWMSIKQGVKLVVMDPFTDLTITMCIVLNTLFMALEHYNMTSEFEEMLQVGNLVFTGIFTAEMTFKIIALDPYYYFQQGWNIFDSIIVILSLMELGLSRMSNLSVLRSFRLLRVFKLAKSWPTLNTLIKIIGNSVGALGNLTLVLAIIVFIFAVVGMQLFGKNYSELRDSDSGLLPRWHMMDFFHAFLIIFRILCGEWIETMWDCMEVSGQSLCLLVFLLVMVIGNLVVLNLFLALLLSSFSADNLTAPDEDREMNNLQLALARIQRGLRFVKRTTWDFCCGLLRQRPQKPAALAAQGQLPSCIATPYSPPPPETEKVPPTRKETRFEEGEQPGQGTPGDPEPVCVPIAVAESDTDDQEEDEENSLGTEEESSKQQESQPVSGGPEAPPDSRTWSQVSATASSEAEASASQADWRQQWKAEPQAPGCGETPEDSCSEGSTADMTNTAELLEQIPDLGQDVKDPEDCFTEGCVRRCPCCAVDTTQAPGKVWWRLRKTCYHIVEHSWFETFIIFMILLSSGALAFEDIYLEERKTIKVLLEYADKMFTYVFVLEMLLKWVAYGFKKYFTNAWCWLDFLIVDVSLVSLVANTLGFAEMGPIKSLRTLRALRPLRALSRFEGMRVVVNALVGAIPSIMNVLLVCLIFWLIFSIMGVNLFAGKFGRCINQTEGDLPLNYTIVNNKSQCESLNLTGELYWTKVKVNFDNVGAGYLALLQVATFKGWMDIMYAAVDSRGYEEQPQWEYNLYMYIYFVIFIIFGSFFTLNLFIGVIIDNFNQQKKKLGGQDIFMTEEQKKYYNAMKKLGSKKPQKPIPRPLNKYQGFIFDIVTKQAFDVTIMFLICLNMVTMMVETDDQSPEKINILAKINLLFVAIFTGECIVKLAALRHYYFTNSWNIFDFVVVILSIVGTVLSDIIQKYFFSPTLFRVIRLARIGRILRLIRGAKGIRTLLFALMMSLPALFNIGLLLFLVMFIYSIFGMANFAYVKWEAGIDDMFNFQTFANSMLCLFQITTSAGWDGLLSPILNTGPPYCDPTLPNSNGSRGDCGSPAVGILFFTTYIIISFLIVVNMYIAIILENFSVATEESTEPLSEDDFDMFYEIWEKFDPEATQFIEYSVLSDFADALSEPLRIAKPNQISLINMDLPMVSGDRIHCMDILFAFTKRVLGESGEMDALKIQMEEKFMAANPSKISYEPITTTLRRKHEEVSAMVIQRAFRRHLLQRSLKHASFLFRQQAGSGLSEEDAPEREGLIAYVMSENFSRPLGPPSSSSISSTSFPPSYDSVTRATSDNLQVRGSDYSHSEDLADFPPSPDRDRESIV
T4 sequence (Q14524 whole entry): as above

Structure (SMILES) | inhibition [10] | half-life [11] | half-life [12] | half-life [14] | IC50 [8] | inhibition at 10 µM [13] | further results
FC(F)(F)Oc1ccc(-c2ccc3nnc(C(F)(F)F)n3c2)cc1 |  |  |  |  |  |  | Kp [1]: 5; Kp [2]: 3; IC50 [3]: > 10 µM; IC50 [4]: 0.4 µM; IC50 [5]: > 10 µM; IC50 [6]: 0.4 µM; IC50 [7]: 7.9 µM
Cn1cnc(Cn2nc3ccc(-c4ccc(OC(F)(F)F)cc4)cn3c2=O)n1 |  |  |  |  | > 10 µM |  | 
O=c1n(Cc2nc(C3CC3)co2)nc2ccc(-c3ccc(OC(F)(F)F)cc3)cn12 |  | 0.65 h | 0.65 h | 1.8 h | 3 µM | ≥ 70% | 
O=c1n(Cc2nnc(C3CC3)o2)nc2ccc(-c3ccc(Oc4ccc(F)cc4)cc3)cn12 | 56% | 6.58 h | 6.58 h | 4.78 h | 740 µM | ≥ 70% | inhibition at 320 s, 1 µM [15]: 69%
O=c1[nH]nc2ccc(-c3ccc(OC(F)(F)F)cc3)cn12 |  | 6.5 h | 1.48 h | 3.17 h | 1.9 µM | ≥ 70% | inhibition at 320 s, 10 µM [9]: 24%
Cc1noc(Cn2nc3ccc(-c4ccc(Oc5ccc(F)cc5)cc4)cn3c2=O)n1 |  | 2.12 h | 1.42 h | 3.62 h | 215 µM | ≥ 70% | inhibition at 320 s, 0.3 µM [16]: 33%; logD [17]: 3

Continued, in another order:

inhibition [10] | half-life [11] | half-life [12] | half-life [14] | Structure (SMILES) | IC50 [8] | inhibition at 10 µM [13] | further results
27% | 6.58 h | 6.05 h |  | Cc1nc(Cn2nc3ccc(-c4ccc(OC(F)(F)F)cc4)cn3c2=O)no1 | 3.3 µM | ≥ 70% | inhibition at 320 s, 10 µM [9]: 10%
28% | 2.4 h | 0.683 h | 2.67 h | Cc1coc(Cn2nc3ccc(-c4ccc(OC(F)(F)F)cc4)cn3c2=O)n1 | 2.5 µM | ≥ 70% | 
44% | 4.8 h | 0.4 h | 3.8 h | Cc1cnc(Cn2nc3ccc(-c4ccc(OC(F)(F)F)cc4)cn3c2=O)o1 | 2.5 µM | ≥ 70% | 
